This is an account of results in patent publication US4125607A, “Daunosaminyl anthracyclinones and their use” (Societa' Farmaceutici Italia S.p.A., priority 1975, dated 1978).

Converted amounts (≈) assume the structure as drawn. Where two headings read alike, the source gives them in different places.

The subject of one series is L1210 leukemia. As to the kind of experiment: Activity on L1210 leukemia in BDF1 mice (Table 4). The format is in vivo. On the procedure: |Activity on L1210 leukemia |BDF1 mice were injected ip with 10^5 ascites |cells on Day 0 and treated ip on Day 1.
For the next series, the system named is HeLa cells. As to the kind of experiment: Inhibition of colony forming ability of cultured HeLa cells in vitro. The class given is cell-based. The settings on record: for IC50: Homo sapiens, read-out: ID50 (50% inhibiting dose). From the text:
Biological activity on cultured HeLa cells. Data
are expressed as 50% inhibiting dose (ng/ml) at
different times of exposure.

The next series concerns Sarcoma 180 ascites. As to the kind of experiment: Antitumor activity in mice bearing Sarcoma 180 ascites, single ip treatment on day 1. The class given is in vivo. The following applies: for LTS (long term survivors) / T/C % (survival time as percentage of controls) / TOX (toxic deaths): single ip on day 1. From the text:
Antitumor activity in mice bearing Sarcoma 180 ascites;
single intraperitoneal treatment on day 1. The results
are expressed as the time of survival of treated animals
as a percentage of the controls (T/C %), the number of
long term survivors (LTS) and toxic deaths (TOX).

The next series has as its system L 1210 leukemia. As to the kind of experiment: Activity on L 1210 leukemia in BDF1 mice (Table 3). The class given is in vivo. An excerpt: ^1 BDF1 mice received 10^5 ascites cells ip on Day 0 - Treatment
Another series concerns P 388 leukemia. As to the kind of experiment: Activity on P 388 leukemia in BDF1 mice (Table 3). The format is in vivo. From the text: ^2 BDF1 mice received 10^6 ascites cells ip on Day 0 - Treatment
The subject of another series is Gross leukemia. As to the kind of experiment: Activity on Gross leukemia in C3H/Hc mice (Table 3). The format is in vivo. An excerpt: ^3 C3H/Hc mice received 2×10^6 leukemic cells iv on Day 0 -
Treatment iv on Days 1, 2, 3.

Regarding `Cc1cc2c(cc1C)C(=O)c1c(O)c3c(c(O)c1C2=O)CC(O)(C(=O)CO)CC3OC1CC(N)C(O)C(C)O1` (stereo not shown) [2,3-Dimethyl-4-demethoxy-adriamycin, 4-demethoxy-2,3-dimethyladriamycin], the T/C % came to 152% with L1210 leukemia (L1210, 1.9 mg/kg ip on Day 1); 152% in the series with L1210 leukemia (L1210, 2.9 mg/kg ip on Day 1); 170% with L1210 leukemia (L1210, 4.4 mg/kg ip on Day 1). Besides, in the series on L1210 leukemia (L1210, 4.4 mg/kg ip on Day 1), the LTS was 1/10.
Consider `CC1OC(OC2CC(O)(C(=O)CO)Cc3c(O)c4c(c(O)c32)C(=O)c2ccccc2C4=O)CC(N)C1O` (stereo not shown) [4-demethoxyadriamycin], for which the “Activity relative to adriamycin (inhibition of colony forming ability)” value with HeLa cells (HeLa cells in vitro, from Table 1) is reported as “about one hundred times more active than adriamycin”. Further, the IC50 in the series on HeLa cells (HeLa cells, 2 hrs. exposure) came out at 1.5 ng/mL (≈ 0.00292 µM); in the series with HeLa cells (HeLa cells, 8 hrs. exposure), 0.34 ng/mL (≈ 0.000662 µM); in the series with HeLa cells (HeLa cells, 24 hrs. exposure), 0.14 ng/mL (≈ 0.000273 µM). For the same compound, the “LTS (long term survivors)” value in the series on Sarcoma 180 ascites (0.25 mg/kg) is recorded as 7/10; in the series on Sarcoma 180 ascites (0.5 mg/kg), 6/10. For the same compound, the “T/C % (survival time as percentage of controls)” value was “above 583%” in the series on Sarcoma 180 ascites (0.25 mg/kg), “above 583%” in the series on Sarcoma 180 ascites (0.5 mg/kg) and 218% in the series with Sarcoma 180 ascites (1.0 mg/kg). Further, in the series on Sarcoma 180 ascites (1.0 mg/kg), the “TOX (toxic deaths)” value is on record as 6/9. The “Activity relative to adriamycin” value with Sarcoma 180 ascites (Sarcoma 180 ascites, from Table 2) was “at least ten times more active than adriamycin”. The T/C % turned out to be 155% in the series with L 1210 leukemia (L 1210, 0.25 mg/kg ip on Day 1); 166% in the series on L 1210 leukemia (L 1210, 0.5 mg/kg ip on Day 1); 133% in the series on L 1210 leukemia (L 1210, 1 mg/kg ip on Day 1); 168% in the series with P 388 leukemia (P 388, 0.25 mg/kg ip on Day 1); 195% in the series with P 388 leukemia (P 388, 0.5 mg/kg ip on Day 1); 209% in the series with P 388 leukemia (P 388, 1 mg/kg ip on Day 1). The T/C % was found to be 228% in the series on Gross leukemia (0.35 mg/kg iv on Days 1, 2, 3); 214% in the series on Gross leukemia (0.45 mg/kg iv on Days 1, 2, 3); 157% in the series with Gross leukemia (0.6 mg/kg iv on Days 1, 2, 3). Also, the Tox with L 1210 leukemia (L 1210, 1 mg/kg ip on Day 1) is reported as 10/10; in the series with P 388 leukemia (P 388, 1 mg/kg ip on Day 1) it was 2/10; in the series on Gross leukemia (0.35 mg/kg iv on Days 1, 2, 3) it was 1/10; in the series with Gross leukemia (0.45 mg/kg iv on Days 1, 2, 3), 1/10; in the series with Gross leukemia (0.6 mg/kg iv on Days 1, 2, 3) it was 8/10.
With `COc1cccc2c1C(=O)c1c(O)c3c(c(O)c1C2=O)C[C@@](O)(C(=O)CO)C[C@@H]3O[C@H]1C[C@H](N)[C@H](O)[C@H](C)O1` [Adriamycin], the IC50 with HeLa cells (HeLa, 2 h) is 125 ng/mL (≈ 0.23 µM); in the series on HeLa cells (HeLa, 8 h) it was 28 ng/mL (≈ 0.0515 µM); in the series with HeLa cells (HeLa, 24 h), 12.5 ng/mL (≈ 0.023 µM). Besides, the “LTS (long term survivors)” value in the series on Sarcoma 180 ascites (2.5 mg/kg) was 7/10; in the series on Sarcoma 180 ascites (5.0 mg/kg), 2/10. For the same compound, the “T/C % (survival time as percentage of controls)” value in the series with Sarcoma 180 ascites (2.5 mg/kg) is reported as “above 583%”; in the series on Sarcoma 180 ascites (5.0 mg/kg), 211%; with Sarcoma 180 ascites (10.0 mg/kg), 163%. The “TOX (toxic deaths)” value was 3/9 in the series on Sarcoma 180 ascites (5.0 mg/kg) and 4/10 in the series on Sarcoma 180 ascites (10.0 mg/kg). Also, the T/C % stood at 155% in the series on L 1210 leukemia (L 1210, 2.5 mg/kg ip on Day 1); 166% in the series on L 1210 leukemia (L 1210, 5 mg/kg ip on Day 1); 155% in the series on L 1210 leukemia (L1210, 10 mg/kg ip on Day 1); 173% with P 388 leukemia (P 388, 2.5 mg/kg ip on Day 1); 218% with P 388 leukemia (P 388, 5 mg/kg ip on Day 1); 230% in the series with P 388 leukemia (P 388, 10 mg/kg ip on Day 1). The T/C % is recorded as 164% in the series with Gross leukemia (3.5 mg/kg iv on Days 1, 2, 3); 186% in the series on Gross leukemia (4.4 mg/kg iv on Days 1, 2, 3); 214% in the series on Gross leukemia (6.0 mg/kg iv on Days 1, 2, 3); 141% in the series on L1210 leukemia (L1210, 2.9 mg/kg ip on Day 1); 152% in the series on L1210 leukemia (L1210, 4.4 mg/kg ip on Day 1); 158% in the series with L1210 leukemia (L1210, 6.6 mg/kg ip on Day 1). Besides, in the series with L1210 leukemia (L1210, 10 mg/kg ip on Day 1), the T/C % amounted to 164%. Besides, the Tox in the series on L 1210 leukemia (L 1210, 5 mg/kg ip on Day 1) is 1/10; with L 1210 leukemia (L1210, 10 mg/kg ip on Day 1), 4/10; in the series with P 388 leukemia (P 388, 10 mg/kg ip on Day 1), 1/10; in the series on Gross leukemia (6.0 mg/kg iv on Days 1, 2, 3), 3/10. For the same compound, the LTS is listed as 1/10 with L1210 leukemia (L1210, 4.4 mg/kg ip on Day 1) and 1/10 in the series with L1210 leukemia (L1210, 10 mg/kg ip on Day 1).
